For experiment [1] the following is noted: literature; cited from earlier work.
The subject of experiment [2] is cold receptors. Nature of the experiment: Cooling effect of eye lotion when used to bathe the eyes. It is filed as in vivo, human. As to conditions: Example 9, eye lotion, 0.003%, eyeball and eyelids. On the procedure:
To the formulation was added 0.003%, based on the total composition of N-(2-hydroxyethyl)-p-menthane carboxamide.

Experiment [3] has as its system cold receptors. The experiment can be described thus: Threshold test: minimum quantity of compound on filter paper square on tongue giving a noticeable cooling effect, selected panel of 6 people. Type of experiment: in vivo, human. As to conditions: panel of 6 people, cooling reported 50% of the time. The source says:
For example, a controlling factor in the onset of cooling effect, its intensity and longevity will be the rate of penetration of the compounds through the epidermis and this will vary in different locations on the human body.
It will also benoted that the described test procedure is done on a statistical basis. This is necessary since sensitivity to these compounds will vary not only from compound to compound and from one part of the body to another, but also from one individual to another. Tests of this nature are commonly used in the testing of the organoleptic properties, e.g. taste, smell etc. of organic and inorganic compounds, see Kirk-Othmer: Encyclopedia of Chemical Technology, 2nd. Ed.
The following test procedure is aimed at determining the minimum quantity of the test compound required to produce a noticeable cooling effect on a person of average sensitivity, this minimum quantity being termed the threshold for that particular compound. The tests are carried out on a selected panel of 6 people of median sensitivity to 1-menthol.
To select a test panel of average sensitivity the following procedure is used. Known quantities of 1-menthol in solution in petroleum ether (bp.40-60) are placed on 5 mm. squares of filter paper, whereafter the solvent is allowed to evaporate. A panel of observers is enrolled and asked to place one impregnated square at a time on the tongue and to report on the presence or absence of a cooling effect. […] Conveniently, one starts with squares containing 2.0 μg. 1-menthol, the amount on each successive square being half that of the preceding square, i.e. the second test square will contain 1.0 μg, the third 0.5 μg and so on. Each quantity is tested on the tongue at least 10 times. In this way, the thresholds to cold receptor stimulus by 1-menthol are determined for each individual of the panel, the threshold for each individual being that amount of 1-menthol for which, in a series of not less than 10 test applications, a cooling effect is reported 50% of the time.
To test the activity of compounds according to this invention, the above procedure is repeated using only the 6 selected panel members of average sensitivity to 1-menthol. The individual thresholds for each test compound on each of the 6 selected panel members are determined and averaged. Those compounds whose average threshold on the select test panel is 100 μg or less are regarded as having cooling activity in accordance with this invention.

Experiment [4] relates to cold receptors. Nature of the experiment: Cooling effect of consumer product in the mouth / on the tongue. Type of experiment: in vivo, human. On the procedure:
To the compositions was added 0.1% of N-n-propyl-p-menthane-3-carboxamide.
Shortly before completion of the blending operation 0.5% by weight of N-(p-menth-3-oyl) morpholine was added to the blender. […]
N-(2-hydroxy-n-propyl)-p-menthane-3-carboxamide was added to a proprietary gin in an amount of 0.08%.
99.5% sucrose and 0.5% citric acid were carefully fused together in the presence of a trace of water. Just before casting the melt onto a chilled plate 0.13% of N,N-dimethyl-p-menthane-3-carboxamide were repidly stirred in. The melt was then cast.
Water was added to icing sugar at 50° C to form a stiff paste. 0.05% of N-ethyl-p-menthane-3-carboxamide was then stirred into a paste and the mixture allowed to set. […]
A proprietary ice cream mixture was mixed in accordance with the manufactures instructions. Shortly before freezing N-p-menth-3-oyl-β-aminopropionic acid n-propyl ester was added in an amount of 0.05%. […]

In experiment [5] the test system is cold receptors. The experiment can be described thus: Cooling effect in the stomach after swallowing tablet. Type of experiment: in vivo, human. The following applies: 0.05%. The source says: Added to the mixture during grinding was 0.05% of N-ethyl-p-menthane- 3-carboxamide. After mixing the mixture was pressed into 0.5 g tablets.
Soluble aspirin (calcium acetylsalicylate) tablets were impregnated with 0.05% of N-ethyl-p-menthane-3-carboxamide by absorption in the tablet of a metered drop of an ethanolic solution of the carboxamide.

Experiment [6] has as its system cold receptors. The experiment can be described thus: Cooling effect of consumer product applied to skin (face, scalp, lips, forehead). It is filed as in vivo, human. On the procedure: Into two separate samples of the base lotion were added 2.0% by weight based on the total composition of N-ethyl-p-menthane-3-carboxamide and N,N-dimethyl-p-menthane-3-carboxamide, each into a different one of the two samples.
To the recipe was added 3.0%, based on the total composition of N-p-menth-3-oylglycine methyl ester. […]
Sodium lauryl ether sulphate, 10 g., was dispersed in 90 g. water in a high speed mill. To the dispersion was added 3.3% by weight of N-(2-hydroxy-n-propyl)-p-menthane-3-carboxamide. […]
The sodium stearate was dissolved by stirring in a warm mixture of the ethanol propylene glycol and water. To the solution was added the perfume and 3.0% of N-(2-hydroxy-n-propyl)-p-menthane-3-carboxamide and the mixture then allowed to solidify into a waxy cake. […]
This Example illustrates now the physiological cooling effect of the compounds of this invention varies according to the locality of application.
In the course of grinding there was added 3.0% of N-n-propyl-p-menthane-3-carboxamide. […]
To this liquid was added 1.0% of N-ethyl-p-menthane-3-carboxamide. A paper tissue was then soaked in the liquid.

On to `CCC(CC)C(=O)N(C)C` [N,N-Dimethyl 2-ethylbutanamide], for which the “cooling taste or refreshing effect” value in experiment [1] is recorded as “refreshing effect”.
As to `CC1CCC(C(C)C)C(C(=O)NCCO)C1` (stereo not drawn) [H, --CH2 CH2 OH, N-(2-hydroxyethyl)-p-menthane carboxamide], the cooling effect result in the experiment with cold receptors [2] is “a cool fresh sensation is apparent on the eyeball and eyelids”. The “Threshold (average minimum quantity to produce a noticeable cooling effect)” value in the experiment with cold receptors [3] was found to be 5 µg.
Take `CCNC(=O)C1CC(C)CCC1C(C)C` (stereo not drawn) [H, --C2 H5, N-ethyl-p-menthane-3-carboxamide]: the cooling effect result in the experiment with cold receptors [4] (Example 12, toothpick, 0.01 mg, tongue) is on record as “a distinct cooling effect is noticeable after a short period of time”; in the experiment with cold receptors [4] (Example 17, mint sweet, 0.05%, mouth) it was “characteristic cooling effect in the mouth of peppermint”; with cold receptors [4] (Example 25, water soluble adhesive on label, 0.025%, tongue), “a pleasant cooling sensation on the tongue”; in the experiment on cold receptors [5] (Example 20, indigestion tablet), “after a short interval of time a noticeable cooling effect in the stomach”; in the experiment with cold receptors [5] (Example 23, soluble aspirin tablet), “a quite noticeable cooling effect developed in the stomach after a short interval”; with cold receptors [6] (Example 2, after shave lotion, 2.0%, face), “a clearly noticeable cooling effect became apparent after a short interval of time”. Further, the cooling effect entry in the experiment with cold receptors [6] (Example 24, cleansing tissue, 1.0% in liquid, skin) is reported as “a fresh cool sensation developed on the skin after a short interval”. In addition, the “Threshold (average minimum quantity to produce a noticeable cooling effect)” value with cold receptors [3] amounted to 0.3 µg.
On to `CC(C)C1CCC(C)C(O)C1O` (stereo not drawn) [2,3-p-menthane diol], for which, in experiment [1], the “cooling taste or refreshing effect” value is “sharp cooling taste”.
